pIC50: −log10 of the molar value.

The pIC50 is the IC50 on a negative log10 scale, so that one unit is a factor of ten.

This assay relates to IFNγ-induced NO production in RAW264.7 mouse macrophages. As to the kind of experiment: Suppression of IFNγ-induced NO production (Nitric Oxide Production and Cell Viability Assay). It counts as cell-based. The following applies: RAW264.7 cells, 2 h pretreatment, then IFNγ 24 h, Griess reagent, normalized to cell viability (WST-1). How it is done:
Assay results for the suppression of IFNγ-induced NO production are shown for several of the compounds of the present invention in Table 1 below. In the right-hand column of this table under the RAW264.7 heading, the results are compared to those of bardoxolone methyl (RTA 402, CDDO-Me). Details regarding this assay are provided in the Examples section below. Nitric Oxide Production and Cell Viability Assay. […] On the next day, cells were pretreated with DMSO or drug (0-200 nM dose range) for 2 hours, and then treated with recombinant mouse IFNγ (R&D Systems) for 24 hours. Nitric Oxide concentration in media was determined using the Griess reagent system (Promega). Cell viability was determined using WST-1 reagent (Roche). IC50 values were determined based on the suppression of IFNγ induced Nitric Oxide production normalized to cell viability.
(Griess reagent forms a coloured azo dye with nitrite.)
On to `CC(C)C1O[C@]23C(=O)C=C4[C@@]5(C)C=C(C#N)C(=O)C(C)(C)[C@@H]5CC[C@@]4(C)[C@]2(C)CC[C@]12CCC(C)(C)C[C@H]23` (stereo partly shown) [TX63496], for which the negative-log IC50 (pIC50) was 7.43.

As to `COC(=O)[C@]12CCC(C)(C)C[C@H]1[C@@]1(O)C(=O)C=C3[C@@]4(C)C=C(C#N)C(=O)C(C)(C)[C@@H]4CC[C@@]3(C)[C@]1(C)CC2` [TX63421], the negative-log IC50 (pIC50) was 8.64.

For `CC(=O)OC[C@]12CCC(C)(C)C[C@H]1[C@@]1(O)[C@H](OC(C)=O)C=C3[C@@]4(C)C=C(C#N)C(=O)C(C)(C)[C@@H]4CC[C@@]3(C)[C@]1(C)CC2` [TX63498], the pIC50 was 7.62.

As to `CCNC(=O)[C@]12CCC(C)(C)C[C@H]1[C@@]1(O)C(=O)C=C3[C@@]4(C)C=C(C#N)C(=O)C(C)(C)[C@@H]4CC[C@@]3(C)[C@]1(C)CC2` [TX63536], the negative logarithm of the IC50 (pIC50) was 8.25.

For the compound `CC(=O)OC[C@]12CCC(C)(C)C[C@H]1[C@@]1(O)C(=O)C=C3[C@@]4(C)C=C(C#N)C(=O)C(C)(C)[C@@H]4CC[C@@]3(C)[C@]1(C)CC2` [TX63499], the pIC50 was 8.68.

For `CC1(C)CC[C@]2(CO)CC[C@]3(C)[C@](O)([C@H](O)C=C4[C@@]5(C)C=C(C#N)C(=O)C(C)(C)[C@@H]5CC[C@]43C)[C@@H]2C1` [TX63489], the pIC50 was 7.21.

As for `CCCCC1O[C@]23C(=O)C=C4[C@@]5(C)C=C(C#N)C(=O)C(C)(C)[C@@H]5CC[C@@]4(C)[C@]2(C)CC[C@]12CCC(C)(C)C[C@H]23` (stereo partly shown) [TX63484], the negative-log IC50 (pIC50) was 7.43.

Regarding `CC1(C)CC[C@]2(C(N)=O)CC[C@@]3(C)[C@]4(C)CC[C@H]5C(C)(C)C(=O)C(C#N)=C[C@]5(C)C4=CC(=O)[C@]3(O)[C@@H]2C1` [TX63530], the pIC50 is 8.85.

For the compound `CCOC(=O)[C@]12CCC(C)(C)C[C@H]1[C@@]1(O)C(=O)C=C3[C@@]4(C)C=C(C#N)C(=O)C(C)(C)[C@@H]4CC[C@@]3(C)[C@]1(C)CC2` [TX63469], the negative-log IC50 (pIC50) is 8.66.

Take `CC1(C)CC[C@]2(CO)CC[C@@]3(C)[C@]4(C)CC[C@H]5C(C)(C)C(=O)C(C#N)=C[C@]5(C)C4=CC(=O)[C@]3(O)[C@@H]2C1` [TX63490]: the pIC50 was 8.82.

(Values after patent US9278912B2, “C13-hydroxy derivatives of oleanolic acid and methods of use thereof” (priority 2012, dated 2016).)
